The assay deals with T1, RACK1A Y248 phosphorylation (Arabidopsis thaliana, UniProt O24456).
T1 construct: from tissue; host or cells: one-week old Arabidopsis seedlings (whole-seedling lysate)
In words: Stress hormone (ABA) induced RACK1A Y248 phosphorylation in Arabidopsis seedlings, western blot (FIG. 1). In kind it is cell-based. As to conditions: 10 uM ABA, 12 hours. The source says:
The results of lab experiment establish the compounds identified by in silico screen to prevent RACK1 Y248 phosphorylation can inhibit RACK1 Y248 phosphorylation and confirm their utility in their application in RACK1 mediated cellular pathways. Y248 phosphorylation has previously been identified as a key event needed for RACK1 mediated scaffolding activities by regulating protein-protein interactions in plants. The corresponding residue in human RAKI is also a key requirement for scaffolding activities needed at the receptor level during the invasion and migration of cancer cells. […] The knock-out plant did maintain both the RACK1B protein and the RACK1C protein, but the antibody was raised to detect the RACK1A Y248 phosphorylation only.
As to FIG. 1, since RACK1 is a regulator of plant stress hormone Abscisic acid (ABA) (Guo et al., 2009), one-week old Arabidopsis seedlings were treated with 10 uM of ABA in the presence/absence of the inhibitor compounds for 12 hours in a growth chamber (overnight) at 22 C mostly in the night dark. Lysates isolated in buffer (Cell Signaling, MA) supplemented with plant protease inhibitor (Sigma-Aldrich), Protein Tyrosine phosphatase inhibitors (Santa Cruz Biotechnology, TX), and N-Ethylamaleimide (Sigma-Aldrich) at 25 mM to inhibit de-sumoylation. […]
(A western blot detects proteins with antibodies after separation by electrophoresis.)

This is an account of results in patent publication US12629355B2, “Drug inhibitor against migration and invasion of cancer cells and methods of treating against metastasis of cancer cells” (HOWARD UNIVERSITY, priority 2019, dated 2026).

T1 sequence (O24456 whole entry): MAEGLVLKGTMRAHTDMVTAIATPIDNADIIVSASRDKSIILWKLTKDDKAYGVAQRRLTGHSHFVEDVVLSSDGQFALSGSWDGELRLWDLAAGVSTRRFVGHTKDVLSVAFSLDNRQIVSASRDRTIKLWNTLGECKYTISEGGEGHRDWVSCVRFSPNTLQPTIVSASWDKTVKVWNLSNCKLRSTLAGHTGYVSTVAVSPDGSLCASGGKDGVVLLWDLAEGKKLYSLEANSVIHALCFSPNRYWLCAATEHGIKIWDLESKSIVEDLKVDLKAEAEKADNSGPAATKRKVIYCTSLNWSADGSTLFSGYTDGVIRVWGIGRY

As to `Nn1c(S)nnc1-c1ccc(F)cc1` [SD 29, reference compound], the “RACK1A Y248 phosphorylation with stress hormone present” value is listed as “prevents Y248 phosphorylation”.
